“Also recorded” adds a separate entry of the source.
What was measured:
HT22 cell culture = assay: Glutamate toxicity in HT22 cell culture; format: cell-based; details: PSP-2 50 μM (FIG. 9)
From the text: Glutamate toxicity is a model of ferroptotic cell death. Glutamate toxicity and ferroptosis are likely involved in retinal ganglion cell (RGC) death post-optic nerve crush (ONC).

retinal ganglion cells = assay: Retinal ganglion cell survival after optic nerve crush (βIII-tubulin positive cells); format: in vivo, mice; details: two weeks post ONC
Method: (§1) Experiments were performed in 8 to 9-week-old 129S1/SvImJ male mice (Jackson Laboratory, Bar Harbor, Me.). Mice were anesthetized prior to ONC surgery with ketamine and xylazine. The ONC surgery and euthanization of mice were performed as previously described in U.S. Publication No. 2014/079741, the contents of which are hereby incorporated by reference in their entirety. Briefly, a conjunctival incision was made over the dorsal aspect of one eye, which was then gently rotated downward in the orbit. The orbital muscles were slightly separated to expose the optic nerve at its exit from the globe, which was then crushed for 5 seconds with jewelers' forceps (Dumont number 5) near the back of the eye (within 0.5 mm). ONC was performed unilaterally for all autometallography experiments and bilaterally for all regeneration experiments. […]
(§2) Axon growth was determined by counting GAP-43-positive axons extending 0.5 and 1 mm from the crush site. The cross-sectional width of the nerve was measured at the 0.5 and 1 mm points. The number of axons per millimeter of nerve width was calculated and then averaged for the number of sections analyzed. The estimated number of axons per nerve was then calculated. Retinal ganglion cell survival was measured as the number of βIII-tubulin positive cells per mm^2.

[1] = system: GAP-43-positive axons in the optic nerve; assay: Axon regeneration after optic nerve crush (GAP-43-positive axons); format: in vivo, mice
Method: To determine if copper chelation promotes axon regeneration after nerve injury, mice were administered treatments as described in Example 1 after bilateral ONC. […] An antibody against GAP-43 was used to detect growing axons (FIG. 4A-4D).
as §1, with “experiments. Treatments were administered unilaterally for all autometallography experiments and bilaterally for all regeneration experiments. Post-ONC treatments were administered by intraocular injection immediately after ONC surgery. Mice were sacrificed with an overdose of anesthesia. Tissue samples were snap-frozen for all autometallography experiments. Mice were perfused with saline followed by 4% paraformaldehyde (PFA) and the tissue samples were post-fixed in PFA for regeneration experiments.” for “experiments.”
as §2

[2] = system: metals in the retina, i.e., copper and zinc; assay: Autometallography (AMG) of metals in the retina after optic nerve crush (ONC); format: in vivo, mice; details: day 1 post ONC; intraocular injection immediately after ONC; TPEN 100 μM, PSP-2 50 μM, PSP-2+Cu 50 μM
Method: Metals in the retina, i.e., copper and zinc, were visualized using autometallography. […] To determine whether copper chelators had any effect on this increase, the selective copper chelator PSP-2 was used. Mice were administered 3 μL of DMSO 1% in PBS (control), 100 μM TPEN (10 mM TPEN stock in DMSO diluted in PBS (DMSO 1%)), 50 μM PSP-2 (5 mM PSP-2 stock in DMSO diluted in PBS (DMSO 1%)), or 50 μM PSP-2+Cu (10 mM PSP-2+Cu in de-O2 water diluted in PBS (DMSO 1%) immediately after unilateral optic nerve crush (ONC). In these studies, the normal, intact retina was used as a reference.
as §1, with “mm).” for “mm). ONC was performed unilaterally for all autometallography experiments and bilaterally for all regeneration experiments.”

[3] = system: astrocyte-rich primary cortical neurons; assay: DTDP (dithiodipyridine) toxicity in astrocyte-rich primary cortical neurons; format: cell-based; details: PSP-2 3 μM (FIG. 8)
Method: FIG. 8 is a bar plot showing that DTDP (dithiodipyridine) toxicity in astrocyte-rich primary cortical neurons was reversed with PSP-2 (3 μM). DTDP is an agent oxidizing metallothioneins. Oxidation of metallothioneins leads to liberation of metals (zinc and copper) and cell death.

[4] = cited from earlier work

CP(C)(=S)CP(CCP(CP(C)(C)=S)CP(C)(C)=S)CP(C)(C)=S [PSP-2]
glutamate-induced cell death (HT22 cell culture): partially alleviated
survival of retinal ganglion cells (retinal ganglion cells): did not significantly affect survival of retinal ganglion cells; also recorded: did not improve retinal ganglion cell (RGC) survival
axon regeneration, dose dependence ([1]; 2 weeks post ONC, FIG. 7A): improved axon regeneration in a dose-dependent manner
axon regeneration at 0.5 mm distance from the site of ONC ([1]; two weeks post ONC, 0.5 mm, PSP-2 50 μM intraocular): improved axon regeneration
axon regeneration at 1.0 mm distance from the site of ONC ([1]; two weeks post ONC, 1.0 mm, PSP-2 50 μM intraocular): improved axon regeneration
autometallography (AMG) signal in the retina [2]: reduced the autometallography signal; also recorded: reduced metal autometallography (AMG) signal
DTDP-induced cell death [3]: reversed

CP(C)(=S)CP(CP(C)(C)=S)c1ccccc1P(CP(C)(C)=S)CP(C)(C)=S [PhenPS]
dissociation constant, Cu(I) [4]: about 0.6 zM

c1ccc(CN(CCN(Cc2ccccn2)Cc2ccccn2)Cc2ccccn2)nc1 [TPEN, N, N, N′, N′-tetrakis(2-pyridylmethyl) ethylenediamine, reference compound]
autometallography (AMG) signal in the retina [2]: reduced the autometallography signal

CP(C)(=S)CP(CP(C)(C)=S)c1cccc2cccc(P(CP(C)(C)=S)CP(C)(C)=S)c12 [naphPS]
dissociation constant, Cu(I) [4]: 0.8 zM
